# Values quoted from earlier work as cited in US6649645B1 (Pharmacia Corporation, priority 1998, dated 2003).
# Key:
# [1] = system: fibroblast growth factor-induced corneal angiogenesis; settings: rats; Masferrer et al. 1999
# [2] = system: tumor
# [3] = Cynomolgus monkeys, orally for six weeks
# [4] = mice, Milas et al., Cancer Res. 1990
smiles,measurement,setting,value
"Cc1ccc(-c2cc(C(F)(F)F)nn2-c2ccc(S(N)(=O)=O)cc2)cc1 [Celecoxib, Benzenesulfonamide, 4-(5-(4-methylphenyl)-3-(trifluoromethyl)-1H-pyrazol-1-yl)-]",inhibition of fibroblast growth factor-induced corneal angiogenesis,[1],potent inhibition
COc1ccc2c(c1)c(CC(=O)O)c(C)n2C(=O)c1ccc(Cl)cc1 [indomethacin],tumor cure rate after radiotherapy,[2]; [4],increases the tumor cure rate
same,tumor growth delay after radiotherapy,[2]; [4],prolongs tumor growth delay
same,enhancement factor (tumor curability),[2]; printed as 'radiation alone',1.26
same,enhancement factor (tumor growth delay),[2]; radiation-indomethacin,1.4
CN1C(C(=O)Nc2ccccn2)=C(O)c2sc(Cl)cc2S1(=O)=O [lornoxicam],Toxicity,[3],1 to 2 mg/kg/day
